Measured values: the NIST ThermoML archive (doi:10.1021/je200757a)

Key:
[1] = for viscosity / mass density: 101 kPa, Liquid; for viscosity: Capillary tube (Ostwald / Ubbelohde) method; for mass density: Vibrating tube method
[2] = refractive index (Na D-line) (dimensionless); conditions: 101.33 kPa, Liquid
[3] = refractive index (Na D-line) (dimensionless); xn = mol fraction of the nth substance listed; conditions: 101 kPa, Liquid, x1 = 1
[4] = xn = mol fraction of the nth substance listed; conditions: x1 = 1; for viscosity / mass density: 101 kPa, Liquid; for viscosity: Capillary tube (Ostwald / Ubbelohde) method; for mass density: Vibrating tube method

CCCCCCCCCCCC [dodecane]
Conditions	mass density, [1] [kg/m3]	refractive index, [2]	surface tension liquid-gas, [1] [mN/m]	viscosity, [1] [mPa·s]
293.15 K	748.6	1.4219	24.07	1.507
298.15 K	745	–	–	1.377
303.15 K	741.4	1.4168	23.67	1.266
313.15 K	734.1	–	–	1.084

CCCCCCCCCCCC [dodecane] + C1C[C@@H]2[C@H]3CC[C@H](C3)[C@@H]2C1
Conditions	mass density, [4] [kg/m3]	refractive index, [3]	surface tension liquid-gas, [4] [mN/m]	viscosity, [4] [mPa·s]
293.15 K	748.6	1.4219	24.07	1.507
298.15 K	745	–	–	1.377
303.15 K	741.4	1.4168	23.67	1.266
313.15 K	734.1	–	–	1.084

CCCCCCCCC [nonane]
[1], Capillary rise
Conditions	surface tension liquid-gas [mN/m]
293.15 K	22.2
303.15 K	21.41

Conditions	mass density, 293.15 K [kg/m3]	mass density, 298.15 K [kg/m3]	mass density, 303.15 K [kg/m3]	mass density, 313.15 K [kg/m3]	refractive index, 293.15 K	refractive index, 303.15 K	viscosity, 293.15 K [mPa·s]	viscosity, 298.15 K [mPa·s]	viscosity, 303.15 K [mPa·s]	viscosity, 313.15 K [mPa·s]
[1]	717.8	713.9	710	702.1	–	–	0.733	0.687	0.647	0.579
[2]	–	–	–	–	1.4048	1.4001	–	–	–	–

CCCCCCCCC [nonane] + C1C[C@@H]2[C@H]3CC[C@H](C3)[C@@H]2C1
Conditions	mass density, 293.15 K [kg/m3]	mass density, 298.15 K [kg/m3]	mass density, 303.15 K [kg/m3]	mass density, 313.15 K [kg/m3]	refractive index, 293.15 K	refractive index, 303.15 K	viscosity, 293.15 K [mPa·s]	viscosity, 298.15 K [mPa·s]	viscosity, 303.15 K [mPa·s]	viscosity, 313.15 K [mPa·s]
[3]	–	–	–	–	1.4048	1.4001	–	–	–	–
[4]	717.8	713.9	710	702.1	–	–	0.733	0.687	0.647	0.579

[4], Capillary rise
Conditions	surface tension liquid-gas [mN/m]
293.15 K	22.2
303.15 K	21.41

CCCCCCCCCCCCC [tridecane]
Conditions	mass density, [1] [kg/m3]	refractive index, [2]	surface tension liquid-gas, [1] [mN/m]	viscosity, [1] [mPa·s]
293.15 K	756.5	1.4253	24.79	1.894
298.15 K	752.9	–	–	1.726
303.15 K	749.3	1.4213	24.08	1.577
313.15 K	742.2	–	–	1.325

CCCCCCCCCCCCC [tridecane] + C1C[C@@H]2[C@H]3CC[C@H](C3)[C@@H]2C1
Conditions	mass density, [4] [kg/m3]	refractive index, [3]	surface tension liquid-gas, [4] [mN/m]	viscosity, [4] [mPa·s]
293.15 K	756.5	1.4253	24.79	1.894
298.15 K	752.9	–	–	1.726
303.15 K	749.3	1.4213	24.08	1.577
313.15 K	742.2	–	–	1.325

C1C[C@@H]2[C@H]3CC[C@H](C3)[C@@H]2C1 [exo-tetrahydrodicyclopentadiene]
[1], Capillary rise
Conditions	surface tension liquid-gas [mN/m]
293.15 K	31.86
303.15 K	31.09

Conditions	mass density, 293.15 K [kg/m3]	mass density, 298.15 K [kg/m3]	mass density, 303.15 K [kg/m3]	mass density, 313.15 K [kg/m3]	refractive index, 293.15 K	refractive index, 303.15 K	viscosity, 293.15 K [mPa·s]	viscosity, 298.15 K [mPa·s]	viscosity, 303.15 K [mPa·s]	viscosity, 313.15 K [mPa·s]
[1]	935.3	931.4	927.5	919.6	–	–	3.077	2.784	2.525	2.112
[2]	–	–	–	–	1.4877	1.4832	–	–	–	–
